The source of these data is patent publication US9000034B2, “Antibiotic composition containing erythorbyl laurate and its usage” (SNU R&DB Foundation, priority 2012, dated 2015).

In data set [1] the test system is Salmonella typhimurium (ATCC 19586). Briefly: Test for bacterial proliferation inhibitory effects (absorbance at 600 nm). The note with it: 37° C., 22 hours; FIG. 5.
Data set [2] concerns Escherichia coli O157:H7 (ATCC 35150). Described as above. The note with it: 37° C., 22 hours; FIG. 5. It counts as cell-based.
Data set [3] has the same test system. In words: Test for apoptotic effects (viable colony count on selective media). It counts as cell-based. Particulars: compared with erythorbic acid and lauric acid; FIG. 4. How it is done:
(§1) Apoptotic effects of erythorbic acid, lauric acid, and erythorbyl laurate, which is a […] product of erythorbic acid and lauric acid and a material of interest in this experiment, on two kinds of Gram-negative bacteria and two kinds of Gram-positive bacteria were evaluated.
(§2) As selective media for antibiosis test, sorbitol MacConkey agar (SMAC) (available from Difco), Xylose Lysine Desoxycholate agar (XLD) (available from Difco), Oxford agar base with Bacto™ Oxford antimicrobial supplement (MOX) (available from Difco), and Baird-Parker Agar Base (BPA) (available from Difco) were used.
(§3) As bacterial strains, Escherichia coli O157:H7 (ATCC 35150), Salmonella typhimurium (ATCC 19586), Listeria monocytogenes (ATCC 19114), and Staphylococcus aureus (ATCC 27213) were prepared. Each of the bacterial strains was cultured in tryptic soy broth (Difco, Becton Dickinson, Sparks, Md., USA) for 24 hours at 37° C., centrifuged at 4000×g for 20 minutes at 4° C., and purified with buffered peptone water (BPW) (available from Difco). Each strain was prepared in the form of a bacterial suspension (10^6 CFU/ml).
(§4) For this experiment, first, 10 ml of erythorbic acid, 10 ml of lauric acid, and 10 ml of erythorbyl laurate were added to 0.1 ml of each bacterial suspension. The resulting solution was satisfactorily mixed using a vortex mixer for minutes. Thereafter, 1 ml of the resultant solution obtained by mixing each bacterial suspension and test compounds was mixed with 9 ml of sterilized peptone water. Then, the resulting mixture was diluted 1:10 using sterilized peptone water. 0.1 ml of the diluted solution was collected and plated on the selective media. The plated media were incubated at 37° C. for 24 hours, and then colonies grown in each plate were measured in log10 CFU/ml.

Data set [4] concerns Salmonella typhimurium (ATCC 19586). The data set is described as above. It counts as cell-based. Particulars: compared with erythorbic acid and lauric acid; FIG. 4. How it is done:
as §1, §2, §3, §4

The test system of data set [5] is Listeria monocytogenes (ATCC 19114). Described as above. The format is cell-based. How it is done:
as §1, §2, §3, §4

Data set [6] deals with Staphylococcus aureus (ATCC 27213). Described as above. The format is cell-based. As to the method: as §1, §2, §3, §4
Data set [7] relates to human intestinal epithelial cells INT-407.
The subject of another data set is Staphylococcus aureus. In words: Test for bacterial proliferation inhibitory effects (absorbance at 600 nm). The format is cell-based. As to the method: Meanwhile, as a result of examination of proliferation inhibition data of Staphylococcus aureus, a portion where an exponential phase of the bacteria starts was remarkably shown unlike Listeria monocytogenes. Thus, the concentration of erythorbyl laurate was further decreased and a growth curve of the bacteria was measured.

Another data set concerns Listeria monocytogenes. The data set is described as above. Particulars: 37° C., 22 hours; FIG. 5.
For data set [8], the system named is human intestinal epithelial cells INT-407. In words: Cytotoxicity test (MTT assay, cell viability). The note with it: FIG. 7. For orientation: Formazan colour is commonly taken as a measure of viable cells.

For `O=C1O[C@H]([C@H](O)CO)C(O)=C1O` [erythorbic acid], the “bacterial proliferation inhibitory effects” value in data set [1] and in data set [2] was “insignificant bacterial proliferation inhibitory effects” throughout.

`CCCCCCCCCCCC(=O)OC[C@@H](O)[C@H]1OC(=O)C(O)=C1O` [erythorbyl laurate]: the apoptotic effects result in data set [3] was “insignificant”; in [4], “insignificant”; in data set [5] (FIG. 4), “excellent apoptotic effects”; in data set [6] (FIG. 4) it was “excellent apoptotic effects”. Besides, the viable cell count in data set [5] (above concentrations of 200 ppm) is 0.48 CFU/ml. The results for the “apoptotic effects according to the concentration” value in data set [5] (up to 200 ppm) and in data set [6] (at a concentration of 200 ppm or higher) were “apoptotic effects were increased in proportion to increase in the concentration” and “continuous apoptotic effects”, respectively. Besides, the cytotoxicity result in data set [7] is recorded as “no cytotoxicity”. Also, the “bacterial proliferation inhibitory effects” value is “effective bacterial proliferation inhibitory effects” with Staphylococcus aureus (37° C., 22 hours, FIG. 5); “insignificant bacterial proliferation inhibitory effects” in [1]; “effective bacterial proliferation inhibitory effects” with Listeria monocytogenes; “insignificant bacterial proliferation inhibitory effects” in [2]. The “growth curve of the bacteria as the concentration decreased” value with Staphylococcus aureus (decreasing concentration of erythorbyl laurate, FIG. 6) was “an induction phase decreased and the exponential phase was observed earlier”. Also, in data set [8] (50 μM and 200 μM), the “cell viability compared with erythorbic acid” value is “cell viability similar to that when erythorbic acid was used”. In addition, in [8] (all the concentrations), the “cell viability compared with ascorbyl palmitate” value is reported as “higher cell viability”.

With `CCCCCCCCCCCC(=O)O` [lauric acid], the “bacterial proliferation inhibitory effects” value in [1] and in data set [2] was “insignificant bacterial proliferation inhibitory effects” in each case.
